Source: ChEMBL document CHEMBL1140429, “Conversion of the potent delta-opioid agonist H-Dmt-Tic-NH-CH(2)-bid into delta-opioid antagonists by N(1)-benzimidazole alkylation(1)” (J Med Chem, 2005)

How the values were obtained:
[1] = molecular target: Mu-type opioid receptor (Cavia porcellus, UniProt P97266); assay: Functional bioactivity against mu opioid receptor in guinea-pig ileum; assay type: tissue-based
[2] = molecular target: Delta-type opioid receptor (Rattus norvegicus, UniProt P33533); assay: Displacement of [3H]deltorphin II from rat delta opioid receptor in brain P2 synaptosomes; assay type: subcellular
[3] = molecular target: Mu-type opioid receptor (Rattus norvegicus, UniProt P33535); assay: Displacement of [3H]DAMGO from rat mu opioid receptor in brain P2 synaptosomes; assay type: subcellular
[4] = molecular target: Delta-type opioid receptor (Mus musculus, UniProt P32300); assay: Functional bioactivity against delta opioid receptor in mouse vas deferens; assay type: tissue-based; conditions: for Kb: read-out: pA2 (converted)
Sequence of Delta-type opioid receptor (Mus musculus, UniProt P32300) (P32300 whole entry): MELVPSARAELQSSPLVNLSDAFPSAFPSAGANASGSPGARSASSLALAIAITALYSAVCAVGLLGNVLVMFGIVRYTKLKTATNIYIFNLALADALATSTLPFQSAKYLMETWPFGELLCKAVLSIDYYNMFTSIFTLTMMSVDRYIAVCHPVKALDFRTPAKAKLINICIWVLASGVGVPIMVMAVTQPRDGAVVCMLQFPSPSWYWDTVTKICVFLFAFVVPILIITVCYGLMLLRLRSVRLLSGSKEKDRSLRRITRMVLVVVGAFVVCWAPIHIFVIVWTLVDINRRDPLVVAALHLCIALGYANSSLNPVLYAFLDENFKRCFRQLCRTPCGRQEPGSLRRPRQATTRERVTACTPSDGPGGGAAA

Sequence of Mu-type opioid receptor (Cavia porcellus, UniProt P97266) (P97266 whole entry): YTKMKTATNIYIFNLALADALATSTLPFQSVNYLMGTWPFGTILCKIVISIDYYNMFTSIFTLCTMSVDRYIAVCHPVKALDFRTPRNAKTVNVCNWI
Sequence of Mu-type opioid receptor (Rattus norvegicus, UniProt P33535) (P33535 whole entry): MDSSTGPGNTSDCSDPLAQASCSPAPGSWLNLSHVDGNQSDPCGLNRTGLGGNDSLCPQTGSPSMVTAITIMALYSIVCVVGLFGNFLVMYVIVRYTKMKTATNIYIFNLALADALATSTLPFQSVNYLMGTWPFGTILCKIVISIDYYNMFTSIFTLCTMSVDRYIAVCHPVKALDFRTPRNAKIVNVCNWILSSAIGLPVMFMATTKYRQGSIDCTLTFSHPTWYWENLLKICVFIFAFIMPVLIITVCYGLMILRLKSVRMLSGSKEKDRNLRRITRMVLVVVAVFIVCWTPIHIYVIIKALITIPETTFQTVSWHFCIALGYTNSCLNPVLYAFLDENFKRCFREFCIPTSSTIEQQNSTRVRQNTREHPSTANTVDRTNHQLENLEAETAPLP
Sequence of Delta-type opioid receptor (Rattus norvegicus, UniProt P33533) (P33533 whole entry): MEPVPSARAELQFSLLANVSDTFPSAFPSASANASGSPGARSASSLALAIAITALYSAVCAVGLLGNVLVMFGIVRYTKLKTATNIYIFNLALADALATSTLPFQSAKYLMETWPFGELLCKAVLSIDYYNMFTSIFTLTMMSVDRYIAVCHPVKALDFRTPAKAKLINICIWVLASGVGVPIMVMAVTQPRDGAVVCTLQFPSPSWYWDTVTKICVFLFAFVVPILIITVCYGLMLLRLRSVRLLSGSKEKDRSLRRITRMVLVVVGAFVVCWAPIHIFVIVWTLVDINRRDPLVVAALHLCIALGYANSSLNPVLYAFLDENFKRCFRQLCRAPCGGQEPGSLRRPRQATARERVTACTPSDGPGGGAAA

SMILES | IC50 [1] [nM] | Ki [2] [nM] | Ki [3] [nM] | IC50 [4] | Kb [4] [nM]
C[C@@H](NC(=O)[C@@H](N)Cc1ccc(O)cc1)C(=O)N[C@@H](Cc1ccccc1)C(=O)NCC(=O)N[C@@H](Cc1ccc(O)cc1)C(=O)N1CCC[C@H]1C(=O)N[C@@H](CO)C(N)=O [DERMORPHIN] | 1.9 |  |  |  | 
C=CCn1c(CNC(=O)[C@@H]2Cc3ccccc3CN2C(=O)[C@@H](N)Cc2c(C)cc(O)cc2C)nc2ccccc21 | 72 | 0.13 | 0.44 | Not Active | 0.457
Cc1cc(O)cc(C)c1C[C@H](N)C(=O)N1Cc2ccccc2C[C@H]1C(=O)NCc1nc2ccccc2n1Cc1ccccc1 | 245 | 0.2 | 1.02 | Not Active | 3.02
CCOC(=O)Cn1c(CNC(=O)[C@@H]2Cc3ccccc3CN2C(=O)[C@@H](N)Cc2c(C)cc(O)cc2C)nc2ccccc21 | 30 | 0.12 | 1.42 | Not Active | 0.17
Cc1cc(O)cc(C)c1C[C@H](N)C(=O)N1Cc2ccccc2C[C@H]1C(=O)NCc1nc2ccccc2n1CC1CC1 | 64 | 0.36 | 0.52 | Not Active | 0.339
CC(C)[C@H](NC(=O)[C@H](CC(=O)O)NC(=O)[C@H](Cc1ccccc1)NC(=O)[C@@H](C)NC(=O)[C@@H](N)Cc1ccc(O)cc1)C(=O)N[C@H](C(=O)NCC(N)=O)C(C)C [DELTORPHIN C] | 1300 |  |  |  | 
Cc1cc(O)cc(C)c1C[C@H](N)C(=O)N1Cc2ccccc2C[C@H]1C(=O)NCc1nc2ccccc2n1CC(=O)O | 3190 | 0.021 | 6.92 | Not Active | 0.269
Cc1cc(O)cc(C)c1C[C@H](N)C(=O)N1Cc2ccccc2C[C@H]1C(=O)NCc1nc2ccccc2n1C | 450 | 0.16 | 0.83 | Not Active | 0.0724
